Data taken from PubChem BioAssay (NCI).
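Compound exposure: 48 hours, 5 concentrations, 96-well plates. The concentration for full growth arrest is given as TGI.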

How the values were obtained:
Experiment in all cases: NCI tumour cell line growth inhibition, 48 h
[1] = test system: NCI-H460 lung
[2] = test system: CAKI-1 renal
[3] = test system: SNB-78 CNS
[4] = test system: U251 CNS
[5] = test system: UO-31 renal
[6] = test system: SF-539 CNS
[7] = test system: MOLT-4 leukemia
[8] = test system: SNB-75 CNS
[9] = test system: NCI-H522 lung
[10] = test system: MCF7 breast
[11] = test system: HCT-15 colon
[12] = test system: HT29 colon
[13] = test system: NCI-H23 lung
[14] = test system: HOP-62 NSCLC
[15] = test system: HCC-2998 colon
[16] = test system: UACC-257 melanoma
[17] = test system: OVCAR-3 ovarian
[18] = test system: HOP-92 NSCLC
[19] = test system: SK-MEL-28 melanoma
[20] = test system: HCT-116 colon
[21] = test system: K-562 leukemia
[22] = test system: UACC-62 melanoma
[23] = test system: IGROV1 ovarian
[24] = test system: CCRF-CEM leukemia
[25] = test system: XF 498 CNS
[26] = test system: A549 NSCLC
[27] = test system: COLO 205 colon
[28] = test system: DMS 273 small cell lung
[29] = test system: SK-MEL-2 melanoma
[30] = test system: A498 renal
[31] = test system: SF-268 CNS
[32] = test system: OVCAR-8 ovarian
[33] = test system: KM20L2 colon
[34] = test system: SN12C renal
[35] = test system: P388/ADR leukemia
[36] = test system: SW-620 colon
[37] = test system: NCI/ADR-RES ovarian
[38] = test system: DLD-1 colon
[39] = test system: RXF 393 renal
[40] = test system: SK-MEL-5 melanoma
[41] = test system: MALME-3M melanoma
[42] = test system: OVCAR-4 ovarian
[43] = test system: HOP-18 NSCLC
[44] = test system: HL-60(TB) leukemia
[45] = test system: NCI-H226 lung
[46] = test system: SK-OV-3 ovarian
[47] = test system: OVCAR-5 ovarian
[48] = test system: M19-MEL melanoma
[49] = test system: SN12K1 renal
[50] = test system: RPMI-8226 leukemia
[51] = test system: SF-295 CNS
[52] = test system: KM12 colon
[53] = test system: SNB-19 CNS
[54] = test system: EKVX NSCLC
[55] = test system: DMS 114 small cell lung
[56] = test system: LOX IMVI melanoma
[57] = test system: P388 leukemia

With `CN(C)CCNC(=O)c1ccc(Cl)c2ccc(-c3ccccc3)nc12` the TGI [1] was 8.04 µM, the TGI [2] was 12.9 µM and the TGI [3] was 20.5 µM. For the same compound, the TGI [4] was 12.7 µM, the TGI [5] was 5.21 µM and the TGI [6] was 12.8 µM. The TGI [7] was 5720 nM, the TGI [8] was 12.3 µM and the TGI [9] was 14.9 µM. The TGI [10] was 16.8 µM, the TGI [11] was 14.5 µM and the TGI [12] was 11.9 µM. It also gave a TGI [13] of 16.6 µM, a TGI [14] of 11 µM and a TGI [15] of 16.6 µM. It also gave a TGI [16] of 14.2 µM, a TGI [17] of 19.4 µM and a TGI [18] of 7.52 µM. It also gave a TGI [19] of 14.6 µM, a TGI [20] of 11.3 µM and a TGI [21] of 6.15 µM. It also gave a TGI [22] of 7.83 µM, a TGI [23] of 14.1 µM and a TGI [24] of 10.8 µM. The TGI [25] was 11 µM, the TGI [26] was 13 µM and the TGI [27] was 4850 nM. For the same compound, the TGI [28] was 10.9 µM, the TGI [29] was 20.1 µM and the TGI [30] was 12.8 µM. The TGI [31] was 17.5 µM, the TGI [32] was 12.3 µM and the TGI [33] was 12.9 µM. The TGI [34] was 15.5 µM, the TGI [35] was 5.17 µM and the TGI [36] was 14.2 µM. The TGI [37] was 12.1 µM, the TGI [38] was 12.7 µM and the TGI [39] was 19 µM. The TGI [40] was 4820 nM, the TGI [41] was 10.6 µM and the TGI [42] was 14 µM. The TGI [43] was 13.5 µM, the TGI [44] was 7.65 µM and the TGI [45] was 7.3 µM. It also gave a TGI [46] of 17.4 µM, a TGI [47] of 13.3 µM and a TGI [48] of 13.4 µM. It also gave a TGI [49] of 9.69 µM, a TGI [50] of 7.83 µM and a TGI [51] of 16.5 µM. For the same compound, the TGI [52] was 24.2 µM and the TGI [53] was 17.1 µM.

Compound `CC[C@@]1(O)C[C@H](OC2CC(N(C)C)C(OC3CC(O)C(OC4CC(O)C(O)C(C)O4)C(C)O3)C(C)O2)c2c(cc3c(c2O)C(=O)c2c(O)ccc(O)c2C3=O)[C@H]1C(=O)OC` (stereo not given in full) has a TGI [1] of 0.103 µM, a TGI [2] of 0.142 µM and a TGI [3] of 2.1 µM. The TGI [4] was 3.18 µM, the TGI [5] was 1.22 µM and the TGI [6] was 0.341 µM. The TGI [7] was 103 nM, the TGI [8] was 0.39 µM and the TGI [9] was 0.153 µM. The TGI [10] was 0.959 µM, the TGI [11] was 2.66 µM and the TGI [12] was 0.871 µM. The TGI [13] was 0.314 µM, the TGI [14] was 0.5 µM and the TGI [15] was 0.662 µM. The TGI [16] was 0.184 µM, the TGI [17] was 0.347 µM and the TGI [18] was 0.867 µM. For the same compound, the TGI [19] was 0.293 µM, the TGI [20] was 0.118 µM and the TGI [21] was 1.7 µM. For the same compound, the TGI [22] was 0.106 µM, the TGI [23] was 3.84 µM and the TGI [24] was 1.81 µM. The TGI [25] was 0.225 µM, the TGI [26] was 19.8 µM and the TGI [27] was 390 nM. For the same compound, the TGI [28] was 0.482 µM, the TGI [29] was 0.124 µM and the TGI [30] was 0.0891 µM. For the same compound, the TGI [31] was 1.49 µM, the TGI [32] was 1.15 µM and the TGI [33] was 2.62 µM. For the same compound, the TGI [34] was 2.09 µM, the TGI [35] was 2.23 µM and the TGI [36] was 1.94 µM. It also gave a TGI [37] of 10.2 µM, a TGI [54] of 982 nM and a TGI [38] of 3.59 µM. For the same compound, the TGI [39] was 0.112 µM, the TGI [55] was 959 nM and the TGI [56] was 3.67 µM. The TGI [40] was 135 nM, the TGI [57] was 89.2 nM and the TGI [41] was 0.196 µM. The TGI [42] was 0.564 µM, the TGI [43] was 1.32 µM and the TGI [44] was 1.37 µM. The TGI [45] was 0.203 µM, the TGI [46] was 3.04 µM and the TGI [47] was 3.1 µM. It also gave a TGI [48] of 0.21 µM, a TGI [49] of 0.0678 µM and a TGI [50] of 0.385 µM. It also gave a TGI [51] of 0.654 µM, a TGI [52] of 3.03 µM and a TGI [53] of 4.3 µM.
